Measurements published in patent US5886026A, “Anti-angiogenic compositions and methods of use” (priority 1994, dated 1999).
Values belong to the molecule of their own block, whether it stands above or below them.

Tests used:
Type in all cases: physicochemical
[1] = Methotrexate release from PCL discs; conditions: high MePEG concentrations
Method: A known weight of a polymer (typically a 2.5 mg pellet) is added to a 15 ml test tube containing 14 ml of a buffer containing 10 mm Na2 HPO4 --NaH2 PO4, 0.145 m NaCl and 0.4 g/l bovine serum albumin. The tubes are capped and tumbled at 37° C. At specific times all the 14 ml of the liquid buffer are removed and replaced with fresh liquid buffer.
The aqueous phase is then removed and the methylene chloride phase is dried under nitrogen. The residue is then dissolved in 60% acetonitrile: 40% water and the solution is injected on to a HPLC system using the following conditions: C8 column (Beckman Instruments USA), mobile phase of 58%:5%:37% acetonitrile: methanol: water at a flow rate of […].
For MTX the collected buffer is applied directly to the HPLC column with no need for extraction in methylene chloride. MTX is analyzed at 302 nm. For Vanadium containing compounds the liquid buffer is analyzed directly using a UV/VIS spectrometer in the 200 to 300 nm range.
Methotrexate ("MTX"; Sigma Chemical Co.) is ground in a pestle and mortar to reduce the particle size to below 5 microns. It is then mixed as a dry powder with polycaprolactone (molecular wt 18000 Birmingham Polymers, Ala. USA). The mixture is heated to 65° C. for 5 minutes and the molten polymer/methotrexate mixture is stirred into a smooth paste for 5 minutes. […]

[2] = Vanadyl sulfate release from PCL
Method: Vanadyl Sulfate (Fisher Scientific) is first ground in a pestle and mortar to reduce the particle size, then dispersed into melted PCL as described above for MTX. It is then taken up into a syringe to solidify and is ready for use.
Drug release was determined essentially as described above in Example 33, except that a 65 mg pellet of a 10% w/w VOSO4 :PCL was suspended in 10 ml of water and the supernatant analyzed for released Vanadyl Sulphate using UV/Vis absorbance spectroscopy of the peak in the 200 to 300 nm range.

[3] = Encapsulation of sodium suramin in ELVAX microspheres
Method: One milliliter of 5% ELVAX (poly(ethylene-vinyl acetate) cross-linked with 5% vinyl acetate) in dichloromethane ("DCM") is mixed with a fixed weight of sub-micron ground sodium suramin. This mixture is injected into 5 ml of 5% Polyvinyl Alcohol ("PVA") in water in a 30 ml flat bottomed test tube. Tubes containing different weights of the drug are then suspended in a multi-sample water bath at 40° for 90 minutes with automated stirring. The mixtures are removed, and microsphere samples taken for size analysis. Tubes are centrifuged at 1000 g for 5 min. The PVA supernatant is removed and saved for analysis (nonencapsulated drug). The microspheres are then washed (vortexed) in 5 ml of water and recentrifuged. The 5 ml wash is saved for analysis (surface bound drug). Microspheres are then wetted in 50 μl of methanol, and vortexed in 1 ml of DCM to dissolve the ELVAX. The microspheres are then warmed to 40° C., and 5 ml of 50° C. water is slowly added with stirring. This procedure results in the immediate evaporation of DCM, thereby causing the release of sodium suramin into the 5 ml of water.
All samples were assayed for drug content by quantification of fluorescence. Briefly, sodium suramin absorbs uv/vis with a lambda max of 312 nm. This absorption is linear in the 0 to 100 μg/ml range in both water and 5% PVA. […] This fluorescence is quantifiable in the 0 to 25 μg/ml range.

SMILES: CN(Cc1cnc2nc(N)nc(N)c2n1)c1ccc(C(=O)N[C@@H](CCC(=O)O)C(=O)O)cc1 [MTX]
- MTX release [1]: substantial amounts of MTX can be released from the polymer

- VOSO4 released ([2]; 6 hours, 65 mg pellet 10% w/w in water): 1 mg
- VOSO4 released ([2]; 2 days, 65 mg pellet 10% w/w in water): 3 mg
- VOSO4 released ([2]; day 6, 65 mg pellet 10% w/w in water): 5 mg
SMILES: O=S(=O)([O-])[O-].[O]=[V+2] [VOSO4, vanadyl sulfate]

- drug encapsulated in 50 mg of ELVAX ([3]; 50 mg ELVAX): 50 µg
- % encapsulation ([3]; ELVAX microspheres): < 1%
SMILES: Cc1ccc(C(=O)Nc2ccc(S(=O)(=O)O)c3cc(S(=O)(=O)O)cc(S(=O)(=O)O)c23)cc1NC(=O)c1cccc(NC(=O)Nc2cccc(C(=O)Nc3cc(C(=O)Nc4ccc(S(=O)(=O)O)c5cc(S(=O)(=O)O)cc(S(=O)(=O)O)c45)ccc3C)c2)c1 [suramin]
